According to patent publication US5700819A, “2-substituted benzothiazole derivatives and prophylactic and therapeutic agents for the treatment of diabetic complications” (Grelan Pharmaceutical Co., Ltd., priority 1994, dated 1997):
Each block holds one compound with its values, some of them ahead of it.

Columns and labels:
Normal ICR mice = test: Safety Study; assay type: in vivo; details: 1000 mg/kg oral, single dose; observed 7 days; male ICR mice, 5/group
Experimental: The safety of the compounds of the present invention was confirmed according to the following experimental procedure.
Normal ICR mice (male, 7-week-old, 5 mice/group), fasted for 18 hours, received orally the compound each of Examples 1-ii), 5-ii), 19-ii), 21, 22-ii) and 23-ii) suspended in 0.5% carboxymethyl cellulose at a dose of 1000 mg/kg. Control groups received only 0.5% carboxymethyl cellulose orally. […] The mice were fed with diet and water ad libitum during the experiment.

Aldose reductase = biological target: T1, Aldose reductase (Sus scrofa, UniProt P80276); test: Aldose Reductase Inhibition; assay type: biochemical; details: porcine lens aldose reductase; DL-glyceraldehyde 3 mM, NADPH 0.1 mM, pH 6.2, 37° C.
T1 construct: Aldose reductase samples were prepared from porcine lens; from tissue; host or cells: porcine lens
Experimental: Aldose reductase samples were prepared from porcine lens according the method by S. Hayman et al., (Journal of Biological Chemistry, 240, p. 877-882 (1965)). In brief, lens of porcine eyes were frozen (-80° C.) until employed. These lenses were homogenized with distilled water and then centrifuged at 10,000×g for 15 minutes. The supernatant was fractionated with 0 to 40% ammonium sulfate and centrifuged at 10,000×g for 10 minutes. The resultant supernatant was dialyzed overnight against 0.05M sodium chloride. The dialyzed solution was used as an aldose reductase sample. (Assay of Enzymatic Activity) Aldose reductase activity was assayed according to the aforementioned method by S. Hayman et al. In brief, to 200 μl of 40 mM phosphate buffer (pH 6.2) containing lithium sulfate, 0.4M (final concentration); NADPH (reduced nicotinamide adenine dinucleotide phosphate), 0.1 mM (final concentration); and DL-glyceraldehyde as a substrate, 3 mM (final concentration) was added 25 μl of the aldose reductase solution obtained by the aforementioned method and 25 μl of 1% DMSO solutions containing a sample inhibitor compound with different concentrations. The mixtures were incubated at 37° C. for 2 minutes for reaction and changes in the absorbance at 340 nm were read using an auto-analyzer (Hitachi Corporation, Model 7070, Japan). The change in the absorbance of a mixed solution including 1% DMSO instead of sample compounds was expresses as 100%. […] IC50 (M) means the concentration of the compounds, required for 50% inhibition of aldose reductase activity.

[1] = tested on: sorbitol accumulation in tissues (sciatic nerve, lens) of experimental diabetic rats; test: Inhibitory Effect on Sorbitol Accumulation in the Tissues of Experimental Diabetic Rats (Therapeutic Effect); assay type: in vivo, Sprague-Dawley rats; details: 5 days, from 7 days after streptozotocin, control = 100%, ** P < 0.01 (Tukey); for Sorbitol Accumulation, Nerve: sciatic nerve
Experimental: 4) Inhibitory Effect on Sorbitol Accumulation in the Tissues of Experimental Diabetic Rats (Therapeutic Effect)
Sprague-Dawley rats (male, 6-week-old, 5 to 6 rats/group), fasted for 18 hours, were made diabetic by injecting streptozotocin (Sigma) at a dose of 60 mg/kg body weight into the tail vein thereof. From 7 days after the streptozotocin injection, a sample compound suspended in 0.5% carboxymethyl cellulose was administered orally to the rats at a dose between 1 and 10 mg/kg once daily for 5 consecutive days. The rats were fed with diet and water ad libitum during the experiment. Three hours after the final administration, the sorbitol contents in the tissues (sciatic nerve, lens) was assayed enzymatically using SDH (sorbitol dehydrogenase) and NAD (β-nicotinamide adenine dinucleotide) according to the method by H. U. Bergmeyer et al. (Methods of Enzymatic Analysis, 3, p. 1323-1330 (1974)). The sorbitol contents in control groups to which 0.5% carboxymethyl cellulose was administered instead of sample compounds is expressed as 100%.

[2] = tested on: sorbitol accumulation in tissues (sciatic nerve, lens) of experimental diabetic rats; test: Inhibitory Effect on Sorbitol Accumulation in the Tissues of Experimental Diabetic Rats (Prophylactic effect); assay type: in vivo, Sprague-Dawley rats; details: control = 100%, ** P < 0.01 (Tukey); for Sorbitol Accumulation, Nerve: sciatic nerve
Experimental: 2) Inhibitory Effect on Sorbitol Accumulation in the Tissues of Experimental Diabetic Rats (Prophylactic effect)
Sprague-Dawley rats (male, 6-week-old, 5-6 rats/group), fasted for 18 hours, were made diabetic by a single intravenous (tail vein) injection of 60 mg/kg body weight of streptozotocin (Sigma). Four, eight and twenty four hours after the injection of streptozotocin, respectively, a sample compound suspended in 0.5% carboxymethyl cellulose was administered orally to the rats at a dose of 10 or 30 mg/kg. The rats were fed with diet and water ad libitum during the experiment. Three hours after the final administration, the sorbitol contents in the tissues (sciatic nerve, lens) was assayed enzymatically using SDH (sorbitol dehydrogenase) and NAD (β-nicotinamide adenine dinucleotide) according to the method by H. U. Bergmeyer et al. (Methods of Enzymatic Analysis, 3, p. 1323-1330 (1974)). The sorbitol contents in control groups to which 0.5% carboxymethyl cellulose was administered instead of sample compounds is expressed as 100%.

[3] = 30 mg/kg oral, 4, 8 and 24 h after streptozotocin
[4] = 10 mg/kg oral, 4, 8 and 24 h after streptozotocin

IC50 (Aldose reductase): 13 nM
Structure (SMILES): CN(CC(=O)O)C(=O)CCc1nc2c(F)c(F)cc(F)c2s1 [Example 3-iii), N-[3-(4,5,7-trifluorobenzothiazol-2-yl)propionyl]-N-methylglycine]

IC50 (Aldose reductase): 8.3 nM
Structure (SMILES): O=C(O)CN(C(=O)CCc1nc2c(F)c(F)cc(F)c2s1)c1ccccc1 [Example 4-ii), N-[3-(4,5,7-trifluorobenzothiazol-2-yl)propionyl]-N-phenylglycine]
Sorbitol Accumulation, Lens [2, 3]: 20%
Sorbitol Accumulation, Nerve [2, 3]: 46%

IC50 (Aldose reductase): 9.7 nM
Structure (SMILES): O=C(O)CN(Cc1ccccc1)C(=O)CCc1nc2c(F)c(F)cc(F)c2s1 [Example 5-ii), N-benzyl-N-[3-(4,5,7-trifluorobenzothiazol-2-yl)propionyl]glycine]

IC50 (Aldose reductase): 23 nM
Structure (SMILES): O=C(O)CN(Cc1ccccc1)C(=S)CCc1nc2c(F)c(F)cc(F)c2s1 [Example 8-ii), N-benzyl-N-[3-(4,5,7-trifluorobenzothiazol-2-yl)-1-thioxopropyl]glycine]

IC50 (Aldose reductase): 14 nM
Structure (SMILES): O=C(O)CCCCSc1nc2c(F)c(F)cc(F)c2s1 [Example 15-ii), 5-(4,5,7-trifluorobenzothiazol-2-ylthio)pentanoic acid]

IC50 (Aldose reductase): 19 nM
Structure (SMILES): O=C(O)Cc1ccccc1Cc1nc2c(F)c(F)cc(F)c2s1 [Example 20-ii), 2-[(4,5,7-trifluorobenzothiazol-2-yl)methyl]phenylacetic acid]
Sorbitol Accumulation, Lens [2, 4]: 63%
Sorbitol Accumulation, Nerve [2, 4]: 15%

IC50 (Aldose reductase): 8.7 nM
Structure (SMILES): O=C(O)Cc1cc(Cc2nc3c(F)c(F)cc(F)c3s2)cc(C(=O)O)c1 [Example 30-ii), 3-[(4,5,7-trifluorobenzothiazol-2-yl)methyl]-5-carboxymethylbenzoic acid]

IC50 (Aldose reductase): 8.4 nM
Structure (SMILES): O=C(O)CN(C(=S)CCc1nc2c(F)c(F)cc(F)c2s1)c1ccccc1 [Example 32-ii), N-[3-(4,5,7-trifluorobenzothiazol-2-yl)-1-thioxopropionyl]-N-phenylglycine]

Continued, compound first:

Structure (SMILES): Cc1cc(CC(=O)O)cc(Cc2nc3c(F)c(F)ccc3s2)c1 [23-ii), 3-[(4,5-difluorobenzothiazol-2-yl)methyl]-5-methylphenylacetic acid]
mortality (Normal ICR mice): No animal died

Structure (SMILES): O=C(O)Cc1cccc(Cc2nc3c(F)c(F)cc(F)c3s2)c1 [Example 1-ii), 3-[(4,5,7-trifluorobenzothiazol-2-yl)methyl]phenylacetic acid]
IC50 (Aldose reductase): 6.6 nM
Sorbitol Accumulation, Lens ([1]; 10 mg/kg oral once daily): 68%
Sorbitol Accumulation, Nerve ([1]; 10 mg/kg oral once daily): 2%
Sorbitol Accumulation, Lens [2, 3]: 4%
Sorbitol Accumulation, Nerve [2, 3]: 0%

Structure (SMILES): O=C(O)Cc1cccc(Cc2nc3c(Cl)c(Cl)ccc3s2)c1 [Example 19-ii), 3-[(4,5-dichlorobenzothiazol-2-yl)methyl]phenylacetic acid]
IC50 (Aldose reductase): 12 nM

Structure (SMILES): O=C(O)Cc1cccc(Cc2nc3c(F)c(F)ccc3s2)c1 [Example 21, 3-[(4,5-difluorobenzothiazol-2-yl)methyl]phenylacetic acid]
IC50 (Aldose reductase): 6.7 nM
Sorbitol Accumulation, Lens [2, 4]: 40%
Sorbitol Accumulation, Nerve [2, 4]: 0%

Structure (SMILES): Cc1cc(CC(=O)O)cc(Cc2nc3c(F)c(F)cc(F)c3s2)c1 [Example 22-ii), 3-[(4,5,7-trifluorobenzothiazol-2-yl)methyl]-5-methylphenylacetic acid]
IC50 (Aldose reductase): 9.6 nM
Sorbitol Accumulation, Lens ([1]; 3 mg/kg oral once daily): 25%
Sorbitol Accumulation, Nerve ([1]; 3 mg/kg oral once daily): 2%
Sorbitol Accumulation, Lens [2, 4]: 41%
Sorbitol Accumulation, Nerve [2, 4]: 0%

Structure (SMILES): O=C(O)Cc1cccc(Cc2nc3c(F)c(F)ccc3s2)c1Cl [Example 24-ii), 3-[(4,5-difluorobenzothiazol-2-yl)methyl]-2-chlorophenylacetic acid]
Sorbitol Accumulation, Lens ([1]; 10 mg/kg oral once daily): 26%
Sorbitol Accumulation, Nerve ([1]; 10 mg/kg oral once daily): 11%

Structure (SMILES): O=C(O)Cc1cccc(Cc2nc3c(F)c(F)cc(F)c3s2)c1Cl [Example 25-ii), 3-[(4,5,7-trifluorobenzothiazol-2-yl)methyl]-2-chlorophenylacetic acid]
Sorbitol Accumulation, Lens ([1]; 1 mg/kg oral once daily): 47%
Sorbitol Accumulation, Nerve ([1]; 1 mg/kg oral once daily): 0%

Structure (SMILES): O=C(O)Cc1cc(Br)cc(Cc2nc3c(F)c(F)cc(F)c3s2)c1 [Example 28-ii), 3-[(4,5,7-trifluorobenzothiazol-2-yl)methyl]-5-bromophenylacetic acid]
IC50 (Aldose reductase): 9.4 nM

Structure (SMILES): CN(C)c1cc(CC(=O)O)cc(Cc2nc3c(F)c(F)cc(F)c3s2)c1 [Example 31-ii), 3-[(4,5,7-trifluorobenzothiazol-2-yl)methyl]-5-dimethylaminophenylacetic acid]
IC50 (Aldose reductase): 6.7 nM
Sorbitol Accumulation, Lens ([1]; 3 mg/kg oral once daily): 77%
Sorbitol Accumulation, Nerve ([1]; 3 mg/kg oral once daily): 1%
